Literature values, collected in patent publication US20230357798A1, “GENE CORRECTION FOR X-CGD IN HEMATOPOIETIC STEM AND PROGENITOR CELLS” (THE BOARD OF TRUSTEES OF THE LELAND STANFORD JUNIOR …, priority 2020, published 2023).
Like-named read-outs stand apart in the source and are kept apart here.

Key:
CD34^+ HSPCs [1] = test system: CD34^+ HSPCs
CD34^+ HSPCs [2] = settings: for cell viability relative to edited controls: single agent, CD34+ HSPCs

SMILES	enhancement of HDR (CD34^+ HSPCs [1]; combined with Trichostatin A and NSC 15520, CRISPR/Cpf1, ssODN donor) [fold]	enhancement of HDR (CD34^+ HSPCs [1]; single agent, CD34+ HSPCs) [fold]	HSPC viability (CD34^+ HSPCs [2]; combined with Trichostatin A and NSC 15520) [%]	cell viability relative to edited controls (CD34^+ HSPCs [2]) [%]
O=c1cc(N2CCOCC2)oc2c1ccc1ccccc12 [NU7026]	2.6	1.7	65	~80
O=c1cc(N2CCOCC2)oc2c(-c3cccc4c3sc3ccccc34)cccc12 [NU7441]		2		~65
